Where a name gives a salt, the structure may show the parent alone.
Legend:
anti-thyroxine [1] = test: Fluorescence polarization kinetic assay, F-thyroxine/anti-thyroxine system; type: binding; settings: PBS with 4.75% 2-propanol, BSA 0.1 μM, Anti-Thyroxine 1:300
anti-thyroxine [2] = test: as above; type: binding; settings: for Rate of the antibody reaction with increasing concentrations of additive: PBS with 5% 2-propanol, BSA 0.1 μM, Fluorescein-Thyroxine 1 nM, Anti-Thyroxine 1:300
Experimental: An initial stock solution of anti-thyroxine sera was prepared. In particular, 1 ml of polyclonal anti-thyroxine sera containing 10 mg/ml IgG (Sigma) was diluted 1:5 in PBS buffer, pH 7.5. The final concentration of IgG in the stock solution was about 2 mg/ml.
An initial stock solution of fluorescein-labeled analyte (F-thyroxine) was prepared. […] First, 5 mg (4×10^−6 moles) of F-thyroxine was diluted to 10 ml in PBS to get a 4.1×10^−4 M solution of F-thyroxine. This solution was then further diluted 100-fold in PBS. The final concentration of F-thyroxine in the stock solution was about 4.1×10^−6 M.
All steps are performed at ambient temperature. The total final reaction volume after all additions is 3030 μl. • 1. Add 20 μl or 0 μl (control) anti-sera stock solution to about 2980 μl of Buffer 1. • 2. Pipette the diluted anti-sera solution prepared in step 1 up and down from 1 to 10 seconds to thoroughly mix. • 3. Add between 0 and 20 μl thyroxine stock solution (e.g., 0, 0.5, 2.0, 5.0 and 20 μl) to the mixed anti-sera from step 2. • 4. Pipette the mixture formed in step 3 up and down for 1 to 10 seconds and then incubate for 30 to 300 seconds. • 5. Add 10 μl of the Fluorescein-labeled thyroxine stock solution to the incubated mixture from step 4. • 6. Pipette the mixture formed in step 5 up and down for 1 to 10 seconds and begin measuring polarization (P), Polarized Fluorescence Intensity Difference (V−H) or quenching (V+H total intensity) versus time for between 10 and 7200 seconds after end of mixing in a direct readout polarometer or between 0.1 and 7200 seconds after end of mixing with a stopped-flow polarometer. • 7. Determine the rate of reaction (initial rates) and plot versus amount of thyroxine stock solution added in step 3 to produce a standard curve. • 8. Against a standard curve, an unknown amount of thyroxine can be measured by comparison of initial rate measurement (speed of reaction) of unknown with the standard curve. […]

human sera = test: Non-specific binding of F-thyroxine in presence of human sera; settings: Buffer 2 (1.0 M sodium benzoate), 50 μl human sera, V−H over 10-600 s
Experimental: With reference to FIG. 2, experiments were performed to determine the effects of an additive on specific and non-specific binding. The additive used in the present example was sodium benzoate. The materials described in Example 1 and the measurement methodology described in Example 2 were used. In particular, 50 μl of human sera was added to 3000 μl of Buffer 2 or PBS at pH 7.5 (no additive control) and thoroughly mixed by pipetting for 1 to 10 seconds. To this was added 0 μl of unlabeled thyroxine and 0 μl, 20 μl or 50 μl of anti-sera stock solution. The mixture was thoroughly mixed by pipetting for 1 to 10 seconds. Then, 5 μl of the fluorescein-labeled thyroxine stock solution was added. This was followed by mixing for 1 to 10 seconds by pipetting. Then, d(V−H)/dt measurements were made versus time for between 10 and 600 seconds. This protocol was followed for Experiments 6-9 in Table 2.

serum components = test: Initial non-specific binding between F-thyroxine and serum components (P at t=0); settings: experiments 6-3 through 6-7: serum, increasing sodium benzoate; PBS with 10% 2-propanol
Experimental: The buffer and stock solutions described in Example 1 and the measurement methodology described in Example 2 were used.
• Fluorescein-Thyroxine (1 nM) • Anti-Thyroxine (1:300 dilution) • PBS with 10% 2-propanol • Benzoate in different concentrations • At t=0 s antibody was pipetted into the cuvette. • A 3 ml cuvette was used, the total volume in the cuvette was 2 ml. A small magnetic stirrer was used for mixing
In example 6, the reactions between F-Thyroxine and Anti-Thyroxine, which were carried out in the presence of serum under different reaction conditions, are compared (FIG. 4). There are seven different amounts of sodium benzoate, between 0 and 1.0 Molar in the cuvette. The reaction was performed in a phosphate buffered saline buffer containing 10% 2-propanol. The table in FIG. 4 lists the two important parameters.

anti-thyroxine [3] = test: Fluorescence polarization kinetic assay, rhodamine-labeled thyroxine (ROX-T4)/anti-thyroxine system; type: binding; settings: Rox-Thyroxine 1.5 nM, Anti-Thyroxine 1:300, PBS with 10% 2-propanol, serum 1:500
Experimental: The protocol used is described below. […] Use clean glassware, washed with isopropanol. • 2. Make a 0.5 M solution of sodium benzoate. • 3. […] This will be named BUFFER. • 4. […] The absorbance spectrum is measured using a UV-VIS spectrophotometer, 400 nm to 800 nm. This spectrum is used to define the absorbance of the background as zero and to control that it is actually zero. • 6. […] Measure the absorbance UV-VIS, 400 nm to 800 nm. […] Using a rotating polarometer with a 75 watt Xenon short-arc lamp. The rotating polarizer has three channels: Polarization (P), Total Intensity (V+H), and V−H. • 8. […] Measure P, V+H and V−H after short mixing and 30 second equilibration. […] Add 10 μl. Antibody solution (anti-thyroxine in PBS, dilution unknown, probably 5 mg in 1000 μl PBS and further diluted 1:10 in PBS). New volume is 3017 μl. Measure P, V+H and V−H after short mixing.

## O=C1CCC(=O)N1O [N-hydroxysuccinimide]
anti-thyroxine [1]; Fluorescein-Thyroxine 1.5 nM
  Rate of the antibody reaction with increasing concentrations of additive: substantially slowed

## Cc1ccc(S(=O)(=O)O)cc1.[Na] [sodium p-tolulene sulfonate, sodium p-toluene sulfonate]
anti-thyroxine [2]
  Rate of the antibody reaction with increasing concentrations of additive: substantially slowed

## O=C([O-])CCl.[Na+] [sodium chloroacetate]
anti-thyroxine [1]; Fluorescein-Thyroxine 1 nM
  Rate of the antibody reaction with increasing concentrations of additive: substantially slowed

## N=C(N)N [guanidine hydrochloride]
anti-thyroxine [2]
  Rate of the antibody reaction with increasing concentrations of additive: substantially slowed

## O=C([O-])c1ccccc1.[K+] [potassium benzoate]
anti-thyroxine [1]; Fluorescein-Thyroxine 1 nM
  Rate of the antibody reaction with increasing concentrations of additive: substantially slowed

## O=C([O-])C(Cl)Cl.[Na+] [sodium dichloroacetate]
anti-thyroxine [1]; Fluorescein-Thyroxine 1 nM
  Rate of the antibody reaction with increasing concentrations of additive: substantially slowed

## [Cl-].[Na+] [sodium chloride]
anti-thyroxine [1]; Fluorescein-Thyroxine 1.5 nM
  Rate of the antibody reaction with increasing concentrations of additive: not substantially slowed

## O=C([O-])c1ccccc1.[Na+] [sodium benzoate]
anti-thyroxine [2]; Buffer 1 (0.5 M sodium benzoate in PBS, pH 7.5) versus PBS
  Reaction between F-thyroxine and its specific antibody capable of being followed (kinetic curve): only capable of being followed when the reaction was performed in the presence of an additive
anti-thyroxine [2]; Buffer 2 (1.0 M sodium benzoate), 50 μl human sera, 0/20/50 μl antiserum, V−H over 10-600 s
  Effect of additive on specific binding: does not inhibit specific binding
anti-thyroxine [2]
  Rate of the antibody reaction with increasing concentrations of additive: substantially slowed
anti-thyroxine [2]; experiments 6-3 through 6-7: serum, increasing sodium benzoate, PBS with 10% 2-propanol
  Reaction rate relative to its value from zero additive agent: about 30%
Human sera
  Effect of additive on non-specific binding: inhibits non-specific binding
Serum components
  Polarization value before addition of antibody (t=0): 100 mP
anti-thyroxine [3]
  Rate of the reaction with increasing concentrations of additive: substantially slowed

From patent publication US7993855B2, “Use of additives to lower the rate of a binding reaction” (Aokin AG, priority 2006, dated 2011)
